Tests used:
anti-Xa = experiment: PT clotting time of spiked samples (T2MR and Stago); format: cell-based, human; conditions: spiked at 10 ng/mL-1000 ng/mL
Method: Clotting times were measured by […] by first establishing a time zero T2 value (i.e., by taking the first point or some sort of average or linear fit to the first 5-10 data points) of the T2 time curve, and second identifying the time point (i.e., the clotting time or PT time) in the T2 time curve when the T2 value had changed by a predetermined amount (e.g. 5% or 10%) indicative of clotting in the sample. From the observed PT clotting time the INR was calculated using the methods described in Jan et al., Clin. Chem. 35:840 (1989). […] 18 normal samples and 24 abnormal samples were tested against a reference range established by 20 normal samples. Abnormal samples with prolonged PT times were obtained by spiking increasing levels of the anti-Xa inhibitor Rivaroxiban (10 ng/mL-1000 ng/mL). Correlation with TEG clotting time was obtained across >40 normal patient samples with non-optimized R2 correlation of >0.8. (see FIG. 14B). PT time correlations with Stago for plasma (see FIG. 14D) and with Hemochron for whole blood (see FIG. 14C) were also found.

[1] = system: P2Y12 pathway in platelets; experiment: T2MR platelet inhibition, ADP activation formulation in citrated whole blood; format: cell-based, human; conditions: ex vivo spiked MeSAMP, healthy donors
From the text: We have developed a standard formulation for ADP activation of platelets in citrated whole blood which uses the addition of heparin to control thrombin activation, thereby minimizing variability in platelet activation via thrombin. Clotting in such a system is initiated with a combination of calcium (to overcome citrate), and reptilase/factor XIIIa (to replace thrombin). The complete one-pot activation mixture which activates platelets via ADP, and is therefore useful in probing the state of the P2Y12 ADP receptor, contains heparin, reptilase, factor XIIIa, calcium, and ADP.
In this experiment inhibition of the P2Y12 pathway in platelets by using the ex vivo spiked MeSAMP (2-thiomethyl AMP, an irreversible ADP P2Y12 receptor inhibitor) as a mimic for Plavix inhibition of platelet activity was tested.
A standard ADP activation formulation including heparin, reptilase, factor XIIIa, calcium, and ADP was used to activate platelet in citrated whole blood obtained from healthy donors. Samples were tested in the presence and absence of the platelet activation inhibitor MeSAMP. Again we observed that the clot signature was dependent on platelet activity.

platelet activity = experiment: T2MR platelet inhibition, heparin blood activated by AA+RF; format: cell-based; conditions: 600 μM aspirin ex vivo, AA+RF activation
Method: In this experiment platelet inhibition was monitored by the addition of 600 μM aspirin ex vivo to heparin blood prior to activation by AA+RF (samples were tested with and without aspirin). […] These studies confirmed that the clot signature was dependent on platelet activity.

O=C(NC[C@H]1CN(c2ccc(N3CCOCC3=O)cc2)C(=O)O1)c1ccc(Cl)s1 [Rivaroxiban]
PT times (anti-Xa): prolonged

CSc1nc(N)c2ncn([C@@H]3O[C@H](COP(=O)(O)O)[C@@H](O)[C@H]3O)c2n1 [MeSAMP, 2-thiomethyl AMP]
clot-associated T2 signal [1]: dramatically diminished or absent

CC(=O)Oc1ccccc1C(=O)O [aspirin]
clot-associated T2 signal (platelet activity): dramatically diminished or absent

Source: patent publication US9599627B2, “NMR methods for monitoring blood clot formation” (T2 Biosystems, Inc., priority 2011, dated 2017)
